Assay results: US20240246964A1 (Arbutus Biopharma Corporation, priority 2021, published 2024)

Legend:
[1] = target: PD-L1 His protein / PD-1 Fc protein (Homo sapiens (Human), UniProt Q9NZQ7); assay: HTRF Assay (PD-1/PD-L1 interaction); assay type: binding; settings: PD-L1 His 6 nM, PD-1 Fc 6 nM
human PD-L1 = human PD-L1 (Homo sapiens (Human), UniProt Q9NZQ7); assay: T cell activation luciferase reporter cell culture system (T Cell Activation Assay); assay type: cell-based; settings: luciferase reporter assay; PD-L1 aAPC/CHO-K1 cells with PD-1 effector Jurkat T cells
Sequence of human PD-L1 (Q9NZQ7 19-290): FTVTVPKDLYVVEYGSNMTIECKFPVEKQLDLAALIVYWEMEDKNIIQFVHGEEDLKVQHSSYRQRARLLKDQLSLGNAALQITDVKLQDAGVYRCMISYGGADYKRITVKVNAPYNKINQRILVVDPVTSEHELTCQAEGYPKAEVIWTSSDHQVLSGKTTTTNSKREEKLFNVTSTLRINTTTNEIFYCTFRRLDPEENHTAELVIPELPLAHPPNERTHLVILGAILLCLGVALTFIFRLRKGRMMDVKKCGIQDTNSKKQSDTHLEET

Sequence of PD-L1 His protein / PD-1 Fc protein (Q9NZQ7 19-238): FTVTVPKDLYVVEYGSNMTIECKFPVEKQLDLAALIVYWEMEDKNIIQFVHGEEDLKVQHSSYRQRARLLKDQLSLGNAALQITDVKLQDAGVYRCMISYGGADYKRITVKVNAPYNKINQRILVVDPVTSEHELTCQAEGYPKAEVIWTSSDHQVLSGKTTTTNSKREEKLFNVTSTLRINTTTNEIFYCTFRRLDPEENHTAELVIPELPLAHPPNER

SMILES | IC50 [1] [nM] | EC50 (human PD-L1) [nM]
COc1nc(-c2cccc(-c3ccnc(-c4cc5c(=O)n(C)c(CNC[C@@H]6CCC(=O)N6)nn5c4)c3Cl)c2Cl)ccc1CNC[C@@H]1CCC(=O)N1 [Compound 103, 6-(3-chloro-4-(2-chloro-3-(6-methoxy-5-(((((S)-5-oxopyrrolidin-2-yl)methyl)amino)methyl)pyridin-2-yl)phenyl)pyridin-2-yl)-3-methyl-2-(((((S)-5-oxopyrrolidin-2-yl)methyl)amino)methyl)pyrrolo[2,1-f][1,2,4]triazin-4(3H)-one] | 0.7 | 304
COc1nc(-c2ccnc(-c3cccc4c3CC[C@@H]4Oc3nc(OC)c(CNC[C@@H]4CCC(=O)N4)cc3C(F)(F)F)c2Cl)ccc1CNC[C@@H]1CCC(=O)N1 [Compound 166, (S)-5-((((3′-chloro-6-methoxy-2′-((S)-1-((6-methoxy-5-(((((S)-5-oxopyrrolidin-2-yl)methyl)amino)methyl)-3-(trifluoromethyl)pyridine-2-yl)oxy)-2,3-dihydro-1H-inden-4-yl)-[2,4′-bipyridin]-5-yl)methyl)amino)methyl)pyridine1332ne-2-one] | 0.18 | 1.98
COc1nc(-c2cccc(-c3ccnc(-c4cc(OC)c5nc(CNC[C@@H]6CCC(=O)N6)nn5c4)c3Cl)c2Cl)ccc1CNC(C)C [Compound 764, (S)-5-((((6-(3-chloro-4-(2-chloro-3-(5-((isopropylamino)methyl)-6-methoxypyridin-2-yl)phenyl)pyridin-2-yl)-8-methoxy-[1,2,4]triazolo[1,5-a]pyridin-2-yl)methyl)amino)methyl)pyrrolidin-2-one] | 0.56 | 865
COc1cc(-c2nccc(-c3cccc(-c4ccc(CN5CC6(CNC(=O)C6)C5)c(OC)n4)c3Cl)c2Cl)ccc1CN1CC2(C1)CN(C(C)=O)C2 [Example 493, 2-((6-(3-(2-(4-((6-Acetyl-2,6-diazaspiro[3.3]heptan-2-yl)methyl)-3-methoxyphenyl)-3-chloropyridin-4-yl)-2-chlorophenyl)-2-methoxypyridin-3-yl)methyl)-2,6-diazaspiro[3.4]octan-7-one] | 0.76 | 19.2
COc1cc(-c2nccc(-c3cccc(-c4ccc5c(CNCCO)cn(C)c5n4)c3Cl)c2Cl)ccc1CNC[C@@H]1CCC(=O)N1 [Compound 97, (S)-5-(((4-(3-chloro-4-(2-chloro-3-(3-(((2-hydroxyethyl)amino)methyl)-1-methyl-1H-pyrrolo[2,3-b]pyridin-6-yl)phenyl)pyridin-2-yl)-2-methoxybenzyl)amino)methyl)pyrrolidin-2-one] | 0.5 | 28.3
COc1nc(-c2cccc(-c3cncc(-c4ccc(CNC5CCN(C(C)=O)CC5)c(OC)n4)c3Cl)c2Cl)ccc1CNC1CCN(C(C)=O)CC1 [Compound 639, 1-(4-(((6-(3-(5-(((1-acetylpiperidin-4-yl)amino)methyl)-4′-chloro-6-methoxy-[2,3′-bipyridin]-5′-yl)-2-chlorophenyl)-2-methoxypyridin-3-yl)methyl)amino)piperidin-1-yl)ethan-1-one] | 0.19 | 23
COc1cc(-c2cccc(-c3ccnc(-c4cnc(CNC5CCN(C(C)=O)CC5)c(OC)c4)c3Cl)c2Cl)ccc1CNC1CCN(C(C)=O)CC1 [Compound 500, 1-(4-(((4-(4′-(((1-acetylpiperidin-4-yl)amino)methyl)-2-chloro-3′-methoxy-[1,1′-biphenyl]-3-yl)-3-chloro-5′-methoxy-[2,3′-bipyridin]-6′-yl)methyl)amino)piperidin-1-yl)ethan-1-one] | 1.95 | 120
COc1cc(-c2nccc(-c3cccc(-c4ccc(CNC5CCN(c6ccccc6)CC5)c(OC)n4)c3Cl)c2Cl)ccc1CNC1CCN(c2ccccc2)CC1 [Example 423, N-((6-(2-Chloro-3-(3-chloro-2-(3-methoxy-4-(((1-phenylpiperidin-4-yl)amino)methyl)phenyl)pyridin-4-yl)phenyl)-2-methoxypyridin-3-yl)methyl)-1-phenylpiperidin-4-amine] | 7.78 | 354
CNCc1ccc(-c2cccc(-c3ccnc(-c4ccc(CNCCC(=O)OC(C)C)c(OC)c4)c3Cl)c2Cl)nc1OC [Example 279, Isopropyl 3-((4-(3-chloro-4-(2-chloro-3-(6-methoxy-5-((methylamino)methyl)pyridin-2-yl)phenyl)pyridin-2-yl)-2-methoxybenzyl)amino)propanoate] | 12.4 | 224
COc1cc(-c2nccc(-c3cccc(-c4ccc(CNC5CCN(C(C)=O)CC5)c(OC)n4)c3Cl)c2Cl)cc2c1CN(C1CCN(CC(=O)O)C1=O)CC2 (stereo not shown) [Example 480, 2-(3-(6-(4-(3-(5-(((1-Acetylpiperidin-4-yl)amino)methyl)-6-methoxypyridin-2-yl)-2-chlorophenyl)-3-chloropyridin-2-yl)-8-methoxy-3,4-dihydroisoquinolin-2(1H)-yl)-2-oxopyrrolidin-1-yl)acetic acid] | 3.9 | 1490
COc1cc(-c2nccc(-c3cccc(-c4ccc(CNC[C@H](C)O)c(OC)n4)c3Cl)c2Cl)cc2c1CN(CC(N)=O)CC2 [Example 275, (S)-2-(6-(3-Chloro-4-(2-chloro-3-(5-(((2-hydroxypropyl)amino)methyl)-6-methoxypyridin-2-yl)phenyl)pyridin-2-yl)-8-methoxy-3,4-dihydroisoquinolin-2(1H)-yl)acetamide] | 5.36 | ≥ 10000
COc1cc(-c2nccc(-c3cccc(-c4ccc([C@H](C)NC5CCN(C(C)=O)CC5)c(OC)n4)c3Cl)c2Cl)ccc1[C@H](C)NC1CCN(C(C)=O)CC1 [Example 599, 1-(4-(((S)-1-(6-(3-(2-(4-((S)-1-((1-Acetylpiperidin-4-yl)amino)ethyl)-3-methoxyphenyl)-3-chloropyridin-4-yl)-2-chlorophenyl)-2-methoxypyridin-3-yl)ethyl)amino)piperidin-1-yl)ethan-1-one] | 1.01 | ≥ 10000
COCCC(=O)N1CC2(CN(Cc3ccc(-c4nccc(-c5cccc(-c6ccc(CN7CC8(C7)CN(C(=O)CCOC)C8)c(OC)n6)c5Cl)c4Cl)cc3OC)C2)C1 [Example 679, 1-(6-((6-(2-Chloro-3-(3-chloro-2-(3-methoxy-4-((6-(3-methoxypropanoyl)-2,6-diazaspiro[3.3]heptan-2-yl)methyl)phenyl)pyridin-4-yl)phenyl)-2-methoxypyridin-3-yl)methyl)-2,6-diazaspiro[3.3]heptan-2-yl)-3-methoxypropan-1-one] | 0.16 | 30.5
COc1cc(-c2nccc(-c3cccc(-c4ccc(CN[C@H]5CCC(=O)NC5)c(OC)n4)c3Cl)c2Cl)ccc1CNC1CCN(C(C)=O)CC1 [Example 542, (S)-5-(((6-(3-(2-(4-(((1-Acetylpiperidin-4-yl)amino)methyl)-3-methoxyphenyl)-3-chloropyridin-4-yl)-2-chlorophenyl)-2-methoxypyridin-3-yl)methyl)amino)piperidin-2-one] | 0.53 | 79.2
COc1cc(-c2nccc(-c3cccc(NC(=O)c4ccc(CNC[C@@H]5CCC(=O)N5)cn4)c3Cl)c2Cl)ccc1CNC[C@@H]1CCC(=O)N1 [Example 675, N-(2-Chloro-3-(3-chloro-2-(3-methoxy-4-(((((S)-5-oxopyrrolidin-2-yl)methyl)amino)methyl)phenyl)pyridin-4-yl)phenyl)-5-(((((S)-5-oxopyrrolidin-2-yl)methyl)amino)methyl)picolinamide] | 0.26 | 26.9
COc1cc(-c2nccc(-c3cccc(-c4ccc(CNC5CCN(C(C)=O)CC5)c(OC)n4)c3Cl)c2Cl)ccc1CN1CC[C@H](C(=O)O)C1 [Example 239, (S)-1-(4-(4-(3-(5-(((1-acetylpiperidin-4-yl)amino)methyl)-6-methoxypyridin-2-yl)-2-chlorophenyl)-3-chloropyridin-2-yl)-2-methoxybenzyl)pyrrolidine-3-carboxylic acid] | 0.19 | 161
COc1cc(-c2cccc(-c3ccnc(-c4cnc(CN5CC6(CNC(=O)C6)C5)c(OC)c4)c3Cl)c2Cl)cnc1CN1CC2(CNC(=O)C2)C1 [Compound 569, 2-((3-Chloro-4-(2-chloro-3-(5-methoxy-6-((7-oxo-2,6-diazaspiro[3.4]octan-2-yl)methyl)pyridin-3-yl)phenyl)-5′-methoxy-[2,3′-bipyridin]-6′-yl)methyl)-2,6-diazaspiro[3.4]octan-7-one] | 0.62 | 580
COc1cc(-c2nccc(-c3cccc(-c4ccc(CNC[C@@H]5CCC(=O)N5)c(OC)n4)c3Cl)c2Cl)cc(C)c1CN(C)C[C@@H]1CCC(=O)N1 [Compound 117, (S)-5-((((6-(2-chloro-3-(3-chloro-2-(3-methoxy-5-methyl-4-((methyl(((S)-5-oxopyrrolidin-2-yl)methyl)amino)methyl)phenyl)pyridin-4-yl)phenyl)-2-methoxypyridin-3-yl)methyl)amino)methyl)pyrrolidin-2-one] | 1.3 | 30.7
COc1cc(-c2nccc(-c3cccc(-c4ccc(CNC5CC6(C5)CN(C(C)=O)C6)c(OC)n4)c3C(F)(F)F)c2Cl)ccc1CNC1CC2(C1)CN(C(C)=O)C2 (stereo not shown) [Example 651, 1-(6-(((6-(3-(2-(4-(((2-Acetyl-2-azaspiro[3.3]heptan-6-yl)amino)methyl)-3-methoxyphenyl)-3-chloropyridin-4-yl)-2-(trifluoromethyl)phenyl)-2-methoxypyridin-3-yl)methyl)amino)-2-azaspiro[3.3]heptan-2-yl)ethan-1-one] | 4.06 | ≥ 10000
CNCc1ccc(-c2cccc(-c3ccnc(-c4cc(CN5CC[C@H](C(=O)O)C5)cc(OC)c4)c3Cl)c2Cl)nc1OC [Compound 171, (S)-1-(3-(3-chloro-4-(2-chloro-3-(6-methoxy-5-((methylamino)methyl)pyridine-2-yl)phenyl)pyridine-2-yl)-5-methoxybenzyl)pyrrolidine-3-carboxylic acid] | 1.65 | 670
